Data: ChEMBL document CHEMBL1201862, “PubChem BioAssay data set” (2004)
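1) Cells in 96-well plates. 2) Compound, 48 h, 5 concentrations. 3) Linear interpolation between surrounding doses. 4) Unreached endpoint = highest concentration. GI50 is the concentration that inhibits growth by half.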 Calls of active or inactive are those of the source. Cut-off read from the data, not from the text of the source: active = GI50 up to about 1.1 µM and inactive = higher.

Tests used:
Assay in all cases: inhibition of tumour cell growth, NCI panel, 48 h
HCT-116 = system: HCT-116
HOP-62 = system: HOP-62
SK-MEL-5 = system: SK-MEL-5
A549 = system: A549
NCI-H226 = system: NCI-H226
Malme-3M = system: Malme-3M
OVCAR-5 = system: OVCAR-5
UACC-62 = system: UACC-62
PC-3 = system: PC-3
786-0 = system: 786-0
SK-MEL-2 = system: SK-MEL-2
SN12C = system: SN12C
IGROV-1 = system: IGROV-1
ACHN = system: ACHN
DU-145 = system: DU-145
MOLT-4 = system: MOLT-4
UO-31 = system: UO-31
MDA-MB-231 = system: MDA-MB-231
CCRF-CEM = system: CCRF-CEM
OVCAR-4 = system: OVCAR-4
UACC-257 = system: UACC-257
U-251 = system: U-251
OVCAR-8 = system: OVCAR-8
SK-OV-3 = system: SK-OV-3
TK-10 = system: TK-10
SF-268 = system: SF-268
RXF 393 = system: RXF 393
COLO 205 = system: COLO 205
SW-620 = system: SW-620
HCC 2998 = system: HCC 2998
RPMI-8226 = system: RPMI-8226
NCI/ADR-RES = system: NCI/ADR-RES
SNB-19 = system: SNB-19
OVCAR-3 = system: OVCAR-3
BT-549 = system: BT-549
EKVX = system: EKVX
MDA-MB-435 = system: MDA-MB-435
T47D = system: T47D
SK-MEL-28 = system: SK-MEL-28
HCT-15 = system: HCT-15
SNB-75 = system: SNB-75
MDA-N = system: MDA-N
Hs-578T = system: Hs-578T
KM12 = system: KM12
M14 = system: M14
SF-295 = system: SF-295
NCI-H460 = system: NCI-H460
MCF7 = system: MCF7
HT-29 = system: HT-29
CAKI-1 = system: CAKI-1
K562 = system: K562
NCI-H23 = system: NCI-H23
SF-539 = system: SF-539
A498 = system: A498
LOX IMVI = system: LOX IMVI
NCI-H522 = system: NCI-H522
HOP-92 = system: HOP-92

Structure (SMILES): COc1ccc(/C=N/NC(=O)c2cnc3[nH]c(=O)n(C)c(=O)c3c2)cc1
- GI50 (HCT-116): 57.5 µM (inactive)
- GI50 (HOP-62): 44.3 µM (inactive)
- GI50 (SK-MEL-5): > 100 µM (inactive)
- GI50 (A549): > 100 µM (inactive)
- GI50 (NCI-H226): 64.1 µM (inactive)
- GI50 (Malme-3M): > 100 µM (inactive)
- GI50 (OVCAR-5): > 100 µM (inactive)
- GI50 (UACC-62): 80.2 µM (inactive)
- GI50 (PC-3): > 100 µM (inactive)
- GI50 (786-0): 34.4 µM (inactive)
- GI50 (SK-MEL-2): 44.3 µM (inactive)
- GI50 (SN12C): 88.3 µM (inactive)
- GI50 (IGROV-1): 34.9 µM (inactive)
- GI50 (ACHN): 44 µM (inactive)
- GI50 (DU-145): > 100 µM (inactive)
- GI50 (MOLT-4): > 100 µM (inactive)
- GI50 (UO-31): > 100 µM (inactive)
- GI50 (MDA-MB-231): 27 µM (inactive)
- GI50 (CCRF-CEM): > 100 µM (inactive)
- GI50 (OVCAR-4): > 100 µM (inactive)
- GI50 (UACC-257): > 100 µM (inactive)
- GI50 (U-251): 36.7 µM (inactive)
- GI50 (OVCAR-8): 40.6 µM (inactive)
- GI50 (SK-OV-3): 59.2 µM (inactive)
- GI50 (TK-10): 46.5 µM (inactive)
- GI50 (SF-268): 45.2 µM (inactive)
- GI50 (RXF 393): 38.3 µM (inactive)
- GI50 (COLO 205): > 100 µM (inactive)
- GI50 (SW-620): > 100 µM (inactive)
- GI50 (HCC 2998): > 100 µM (inactive)
- GI50 (RPMI-8226): > 100 µM (inactive)
- GI50 (NCI/ADR-RES): 97.3 µM (inactive)
- GI50 (SNB-19): 34.1 µM (inactive)
- GI50 (OVCAR-3): > 100 µM (inactive)
- GI50 (BT-549): > 100 µM (inactive)
- GI50 (EKVX): > 100 µM (inactive)
- GI50 (MDA-MB-435): > 100 µM (inactive)
- GI50 (T47D): > 100 µM (inactive)
- GI50 (SK-MEL-28): > 100 µM (inactive)
- GI50 (HCT-15): > 100 µM
- GI50 (SNB-75): 13.1 µM (inactive)
- GI50 (MDA-N): > 100 µM (inactive)
- GI50 (Hs-578T): 39.9 µM (inactive)
- GI50 (KM12): > 100 µM (inactive)
- GI50 (M14): > 100 µM (inactive)
- GI50 (SF-295): 46.3 µM (inactive)
- GI50 (NCI-H460): > 100 µM (inactive)
- GI50 (MCF7): > 100 µM (inactive)
- GI50 (HT-29): > 100 µM (inactive)
- GI50 (CAKI-1): 94.8 µM (inactive)
- GI50 (K562): > 100 µM (inactive)
- GI50 (NCI-H23): > 100 µM (inactive)

Structure (SMILES): Cn1c(=O)c2ccccc2c2ccccc21
- GI50 (HCT-116): 45 µM (inactive)
- GI50 (HOP-62): 65.8 µM (inactive)
- GI50 (SK-MEL-5): 30.3 µM (inactive)
- GI50 (A549): 53.8 µM (inactive)
- GI50 (NCI-H226): 32.3 µM (inactive)
- GI50 (Malme-3M): 46 µM (inactive)
- GI50 (UACC-62): 39.8 µM (inactive)
- GI50 (PC-3): 71.6 µM (inactive)
- GI50 (786-0): 45.6 µM (inactive)
- GI50 (SK-MEL-2): 89.1 µM (inactive)
- GI50 (SN12C): 49.2 µM (inactive)
- GI50 (SF-539): 38 µM (inactive)
- GI50 (ACHN): 33 µM (inactive)
- GI50 (DU-145): 47.4 µM (inactive)
- GI50 (UO-31): 42.4 µM (inactive)
- GI50 (MDA-MB-231): 56.6 µM (inactive)
- GI50 (CCRF-CEM): 66.5 µM (inactive)
- GI50 (OVCAR-4): 66.7 µM (inactive)
- GI50 (UACC-257): 81.1 µM (inactive)
- GI50 (U-251): 57.1 µM (inactive)
- GI50 (OVCAR-8): 45.9 µM (inactive)
- GI50 (SK-OV-3): 27.5 µM (inactive)
- GI50 (TK-10): 34.1 µM (inactive)
- GI50 (SF-268): 40.6 µM (inactive)
- GI50 (RXF 393): 40.6 µM (inactive)
- GI50 (COLO 205): 34.3 µM (inactive)
- GI50 (SW-620): 45.2 µM (inactive)
- GI50 (HCC 2998): 56.8 µM (inactive)
- GI50 (A498): 30.8 µM (inactive)
- GI50 (RPMI-8226): 37.8 µM (inactive)
- GI50 (NCI/ADR-RES): 37 µM (inactive)
- GI50 (SNB-19): 64 µM (inactive)
- GI50 (LOX IMVI): 64.4 µM (inactive)
- GI50 (OVCAR-3): 52.7 µM (inactive)
- GI50 (BT-549): 39.6 µM (inactive)
- GI50 (EKVX): 18.8 µM (inactive)
- GI50 (NCI-H522): 36.6 µM (inactive)
- GI50 (MDA-MB-435): 56.8 µM (inactive)
- GI50 (T47D): 57.8 µM (inactive)
- GI50 (SK-MEL-28): 85.5 µM (inactive)
- GI50 (HCT-15): 40 µM
- GI50 (SNB-75): 44.9 µM (inactive)
- GI50 (MDA-N): 47.8 µM (inactive)
- GI50 (Hs-578T): 44.5 µM (inactive)
- GI50 (KM12): 72.9 µM (inactive)
- GI50 (M14): 49.7 µM (inactive)
- GI50 (SF-295): 48.4 µM (inactive)
- GI50 (NCI-H460): 29.3 µM (inactive)
- GI50 (MCF7): 31.5 µM (inactive)
- GI50 (HT-29): 40.2 µM (inactive)
- GI50 (CAKI-1): 24.7 µM (inactive)
- GI50 (HOP-92): 48.3 µM (inactive)
- GI50 (NCI-H23): 69.7 µM (inactive)
